Here are results for 1 molecule from patent publication US12403166B2, “Labisia pumila extract composition and its pharmaceutical formulation” (MEDIKA NATURA SDN. BHD., priority 2021, dated 2025).

In assay [1] the test system is glutathione peroxidase (GPx). The assay is described as follows: Glutathione peroxidase (GPx) in DIO rats (anti-oxidant). Particulars: 30 mg/kg, P≤0.01. The assay is classed as in vivo, rat.
Assay [2] relates to glutathione S-transferase (GST). Particulars: DIO rats, 30 mg/kg, P≤0.05.

Take `CCCCCCCCCCC[C@@H](C[C@@H]1OC(=O)[C@H]1CCCCCC)OC(=O)[C@H](CC(C)C)NC=O` [Orlistat]: the “increase in GPx as compared to DIO control group” value in assay [1] is given as 40.9%. In addition, the “increase in GST as compared to DIO control group” value in assay [2] is given as 10.4%.
